{
  "source": "patent US20230047208A1",
  "about": "“RNA Splicing Modulation” (The General Hospital Corporation, priority 2020, published 2023)",
  "test_system": "wildtype (WT) human fibroblast cell lines",
  "experiment": "Transcriptome-wide splicing by RNA sequencing (RNASeq), exon triplet PSI change;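 for Effect: six WT fibroblast lines treated seven days versus DMSO vehicle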;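 for T-PSI: T-PSI is average treated PSI after seven days of treatment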",
  "format": "cell-based",
  "design": "key to Effect: Exclusion; Inclusion; Unchanged",
  "text": "FIG. 2A provides a representation of an exon triplet. Exon U is upstream of Exon X, which is upstream of Exon D. R1, R2 and R3 represent RNA sequencing (RNASeq) reads spanning the regions between two adjacent exons. UI1, I1X, XI2 and I2D are four regions flanking the four splice sites of the exon-triplet. Each flanking region consists of 25 exonic base pairs and 75 intronic base pairs.\nFIG. 2B provides a volcano plot showing the ψ (PSI: Percent Spliced-In) changes in splicing after treatment with Compound (I). Each dot represents one of the 161,097 expressed exon triplets in human fibroblasts. The x axis represents the ψ changes after treatment and the y axis represents the False Discovery Rate (FDR) (log 10 transformed). […] The horizontal dashed line indicates an FDR of 0.1. The dots on the right side of the right vertical dashed line and above the horizontal dashed line represent the exon-triplets with an increase for Exon X inclusion (Δψ≥0.1 and FDR<0.1) while the dots on left side of the left vertical dashed line and above the horizontal dashed line represent an increase for Exon X exclusion (Δψ≤−0.1 and FDR<0.1). Black dots in-between the two vertical dashed lines represent exon-triplets unchanged from the treatment.\nIn some aspects, analysis is performed on data derived from the assay to measure the magnitude of splicing to determine the amount of exons spliced into an mRNA transcript that is produced in the presence of Compound (I) relative to the amount in the absence of Compound (I) or presence of a negative control. In a preferred aspect, the method utilized is calculation of change in Percent Spliced In (ΔPSI). […] The ΔPSI value is derived from the formula: […]\nThe values for “a” and “b” represent the number of reads supporting the probability for potential inclusion or exclusion of an exon in an RNA transcript. The “a” value is derived from the number of reads within an exon triplet covering, in 5′ to 3′ order: the last few bases (>1 nucleotide) of an upstream exon operably linked to the first few bases (>1 nucleotide) of a middle exon. The “b” value is derived from the number of reads within an exon triplet covering, in 5′ to 3′ order: the last few bases (>1 nucleotide) of the middle exon operably linked to the first few bases (>1 nucleotide) of a downstream exon. The number of reads will indicate whether the splice junction of a middle exon has been identified as potentially having a CNN Motif(s) by the CNN Model described herein, wherein the inclusion or exclusion of the middle exon may be modulated in the presence of Compound (I) to produce one or more mature RNA isoforms from the gene transcript. The value for “c” represents the number of reads supporting the exclusion of the middle exon.\nThe effect on splicing modulation and corresponding splice differences toward exon inclusion or exclusion was determined by counting the RNASeq reads covering two splice junctions of exon triplets (three consecutive exons: Exon U, Exon X, Exon D) and the corresponding intervening introns, then comparing the change in Percent Spliced In (ΔPSI or Δψ) of the middle exon (Exon X) after treatment (as shown in FIG. 2A)^52,53. 934 exon triplets were identified showing differential middle exon inclusion or exclusion in response to Compound (I) treatment. Of these, 254 were exon inclusion events (Δψ≥0.1 and FDR<0.1) and 680 were exon exclusion events (Δψ≤−0.1 and FDR<0.1) (as shown in FIG. 2B). […] The splicing results were evaluated by RT-PCR in independent replicate experiments, confirming all the calculated Δψ values. […]",
  "key": {"[1]": {"conditions": "PCNXL2 Exon 233160892-233161145"}, "[2]": {"conditions": "PCNXL2 Exon 233353645-233353677"}, "[3]": {"conditions": "PDE4DIP Exon 144859759-144859998"}},
  "data": [
    {"compound": "Clc1nc(NCc2ccncc2)c2cc[nH]c2n1", "note": "[Compound (I), 2-chloro-N-(pyridin-4-ylmethyl)-7H-pyrrolo[2,3-d]pyrimidin-4-amine]", "values": [
      {"measurement": "ΔPSI", "setting": "PARP6 Exon 72543186-72543295", "result": 0.148},
      {"measurement": "Effect", "setting": "PARP6 Exon 72543186-72543298", "result": "Inc"},
      {"measurement": "T-PSI", "setting": "PARP6 Exon 72543186-72543298", "result": 0.870},
      {"measurement": "ΔPSI", "setting": "PARP6 Exon 72543186-72543298", "result": 0.164},
      {"measurement": "Effect", "setting": "PARP11 Exon 3938076-3938196", "result": "Exc"},
      {"measurement": "T-PSI", "setting": "PARP11 Exon 3938076-3938196", "result": 0.250},
      {"measurement": "ΔPSI", "setting": "PARP11 Exon 3938076-3938196", "result": "−0.245"},
      {"measurement": "Effect", "setting": "PATL1 Exon 59423429-59423518", "result": "Exc"},
      {"measurement": "T-PSI", "setting": "PATL1 Exon 59423429-59423518", "result": 0.710},
      {"measurement": "ΔPSI", "setting": "PATL1 Exon 59423429-59423518", "result": "−0.168"},
      {"measurement": "Effect", "setting": "PCBP2 Exon 53861589-53861627", "result": "Exc"},
      {"measurement": "T-PSI", "setting": "PCBP2 Exon 53861589-53861627", "result": 0.431},
      {"measurement": "ΔPSI", "setting": "PCBP2 Exon 53861589-53861627", "result": "−0.218"},
      {"measurement": "Effect", "setting": "PCID2 Exon 113845186-113845289", "result": "Exc"},
      {"measurement": "T-PSI", "setting": "PCID2 Exon 113845186-113845289", "result": 0.757},
      {"measurement": "ΔPSI", "setting": "PCID2 Exon 113845186-113845289", "result": "−0.217"},
      {"measurement": "Effect", "setting": "PCM1 Exon 17838100-17838264", "result": "Exc"},
      {"measurement": "T-PSI", "setting": "PCM1 Exon 17838100-17838264", "result": 0.444},
      {"measurement": "ΔPSI", "setting": "PCM1 Exon 17838100-17838264", "result": "−0.135"},
      {"measurement": "Effect", "setting": "[1]", "result": "Unc"},
      {"measurement": "T-PSI", "setting": "[1]", "result": 0.891},
      {"measurement": "ΔPSI", "setting": "[1]", "result": 0.009},
      {"measurement": "Effect", "setting": "[2]", "result": "Exc"},
      {"measurement": "T-PSI", "setting": "[2]", "result": 0.899},
      {"measurement": "ΔPSI", "setting": "[2]", "result": "−0.101"},
      {"measurement": "Effect", "setting": "PCNXL4 Exon 60574304-60575045", "result": "Exc"},
      {"measurement": "T-PSI", "setting": "PCNXL4 Exon 60574304-60575045", "result": 0.498},
      {"measurement": "ΔPSI", "setting": "PCNXL4 Exon 60574304-60575045", "result": "−0.151"},
      {"measurement": "Effect", "setting": "PCYT2 Exon 79863258-79863323", "result": "Exc"},
      {"measurement": "T-PSI", "setting": "PCYT2 Exon 79863258-79863323", "result": 0.804},
      {"measurement": "ΔPSI", "setting": "PCYT2 Exon 79863258-79863323", "result": "−0.150"},
      {"measurement": "Effect", "setting": "[3]", "result": "Inc"},
      {"measurement": "T-PSI", "setting": "[3]", "result": 0.821},
      {"measurement": "ΔPSI", "setting": "[3]", "result": 0.140},
      {"measurement": "Effect", "setting": "PDGFC Exon 157782581-157782641", "result": "Unc"},
      {"measurement": "T-PSI", "setting": "PDGFC Exon 157782581-157782641", "result": 0.141},
      {"measurement": "ΔPSI", "setting": "PDGFC Exon 157782581-157782641", "result": 0.006},
      {"measurement": "Effect", "setting": "PDLIM2 Exon 22449064-22449181", "result": "Exc"},
      {"measurement": "T-PSI", "setting": "PDLIM2 Exon 22449064-22449181", "result": 0.542},
      {"measurement": "ΔPSI", "setting": "PDLIM2 Exon 22449064-22449181", "result": "−0.322"},
      {"measurement": "Effect", "setting": "PDP1 Exon 94930139-94930173", "result": "Unc"},
      {"measurement": "T-PSI", "setting": "PDP1 Exon 94930139-94930173", "result": 0.184},
      {"measurement": "ΔPSI", "setting": "PDP1 Exon 94930139-94930173", "result": "−0.002"},
      {"measurement": "Effect", "setting": "PDPR Exon 70148773-70148833", "result": "Unc"},
      {"measurement": "T-PSI", "setting": "PDPR Exon 70148773-70148833", "result": 0.268},
      {"measurement": "ΔPSI", "setting": "PDPR Exon 70148773-70148833", "result": "−0.005"},
      {"measurement": "Effect", "setting": "PDXDC2P Exon 70010714-70011906", "result": "Unc"},
      {"measurement": "T-PSI", "setting": "PDXDC2P Exon 70010714-70011906", "result": 0.246},
      {"measurement": "ΔPSI", "setting": "PDXDC2P Exon 70010714-70011906", "result": "−0.004"},
      {"measurement": "Effect", "setting": "PDZD11 Exon 69509372-69509443", "result": "Inc"},
      {"measurement": "T-PSI", "setting": "PDZD11 Exon 69509372-69509443", "result": 0.417},
      {"measurement": "ΔPSI", "setting": "PDZD11 Exon 69509372-69509443", "result": 0.257},
      {"measurement": "Effect", "setting": "PEAK1 Exon 77576225-77576372", "result": "Exc"},
      {"measurement": "T-PSI", "setting": "PEAK1 Exon 77576225-77576372", "result": 0.201},
      {"measurement": "ΔPSI", "setting": "PEAK1 Exon 77576225-77576372", "result": "−0.170"},
      {"measurement": "Effect", "setting": "PEAK1 Exon 77657505-77657567", "result": "Unc"},
      {"measurement": "T-PSI", "setting": "PEAK1 Exon 77657505-77657567", "result": 0.806},
      {"measurement": "ΔPSI", "setting": "PEAK1 Exon 77657505-77657567", "result": "−0.001"},
      {"measurement": "Effect", "setting": "PEX1 Exon 92138643-92138725", "result": "Exc"},
      {"measurement": "T-PSI", "setting": "PEX1 Exon 92138643-92138725", "result": 0.444},
      {"measurement": "ΔPSI", "setting": "PEX1 Exon 92138643-92138725", "result": "−0.341"},
      {"measurement": "Effect", "setting": "PEX5 Exon 7354837-7354947", "result": "Exc"},
      {"measurement": "T-PSI", "setting": "PEX5 Exon 7354837-7354947", "result": 0.279},
      {"measurement": "ΔPSI", "setting": "PEX5 Exon 7354837-7354947", "result": "−0.163"},
      {"measurement": "Effect", "setting": "PEX11A Exon 90229662-90229777", "result": "Exc"},
      {"measurement": "T-PSI", "setting": "PEX11A Exon 90229662-90229777", "result": 0.316},
      {"measurement": "ΔPSI", "setting": "PEX11A Exon 90229662-90229777", "result": "−0.403"},
      {"measurement": "T-PSI", "setting": "PFDN1 Exon 139680001-139680167", "result": 0.458},
      {"measurement": "ΔPSI", "setting": "PFDN1 Exon 139680001-139680167", "result": "−0.326"},
      {"measurement": "T-PSI", "setting": "PFDN5 Exon 53690214-53690335", "result": 0.175},
      {"measurement": "ΔPSI", "setting": "PFDN5 Exon 53690214-53690335", "result": 0.008},
      {"measurement": "T-PSI", "setting": "PFDN5 Exon 53690238-53690335", "result": 0.180},
      {"measurement": "ΔPSI", "setting": "PFDN5 Exon 53690238-53690335", "result": 0.007},
      {"measurement": "exon triplets showing differential middle exon inclusion or exclusion in response to treatment", "setting": "RNASeq, human fibroblasts, out of 161,097 expressed triplets", "result": 934},
      {"measurement": "unchanged-response set, exon triplets", "setting": "Δψ≤0.01", "result": 382},
      {"measurement": "exon exclusion events", "setting": "Δψ≤−0.1 and FDR<0.1", "result": 680},
      {"measurement": "exon inclusion events", "setting": "Δψ≥0.1 and FDR<0.1", "result": 254}
    ]}
  ]
}
